Patent publication US4367339A, “Substituted N-nitroaniline compounds and inorganic and organic salts thereof useful for enhancing auxiliary branching, canopy flowering and crop yield of plant and as lodging inhibitors therefor” (priority 1980, dated 1983)
Structures can show the parent of a compound that is named as a salt.

What was measured:
[1] = system: soybean (Glycine max) Adelphia; experiment: Dwarfing and stem stiffening of soybeans (plant height, greenhouse, foliar spray); assay type: in vivo; details: three weeks after spraying
Experimental: In the following tests, test compounds are dissolved or dispersed in acetone-water (1:1) mixtures at the final concentration corresponding to the kg/ha rates indicated in the table below. The solution also contains 0.25% v/v colloidal BIOFILM® (a product of Colloidal Products Corp.) which is a mixture of alkyl aryl polyethoxyethanol, free and combined fatty acids, glycol ethers, dialkylbenzene carboxylate and 2-propanol.
The plant species used in these tests are barley (Hordeum vulgare), (Mexico) and soybean (Glycine max)Adelphia.
The solution or dispersion of the compound under test is sprayed at a rate of 747 l/ha with a moving nozzle along an overhead stationary track. The spray nozzle moves at a constant speed over the plants.
The plants are grown in plastic pots, and are well established at the time of treatment. The seedlings of barley are 10 to 20 cm in height, while the seedlings of soybeans are at the second to third trifoliate stage. Plants are watered prior to treatment and then sprayed to provide the kg/ha rate of test compound desired. After spraying the plants are placed on greenhouse benches and watered and fertilized in accordance with normal greenhouse procedures.
Three weeks after spraying the plants are measured and harvested. Harvesting is done at the boot stage. All treatments are replicated six times and comparisons are made against untreated controls. Data obtained are reported in Table VI below as percent reduction in plant height over untreated controls.

[2] = system: barley (Hordeum vulgare, var. Georgie); experiment: Antilodging effects on barley; assay type: in vivo; set-up: key to Tiller formation / Stem stiffness: 5 = no increase over controls, 3 = moderate significant increase; details: for Stem stiffness / Tiller formation: control 5; for Weight Dry: control 5.2; for Weight Fresh: control 49.1; for Height: control 53.1; for Phytotoxicity: three weeks after spraying
Experimental: In this experiment the procedure of Example 7 is repeated excepting that the crop used was barley (Hordeum vulgare, var. Georgie; European lodging prone variety). The plants are treated at the 3-4 leaf stage. Plants are watered prior to treatment and then sprayed to provide the kg/ha rate of test compound desired. After spraying the plants are placed on greenhouse benches and watered and fertilized in accordance with normal greenhouse procedures.
Three weeks after spraying the plants are measured and harvested. All treatments are replicated six times and companions are made against untreated controls.
The following rating system is used:
5=No increase over controls
3=Moderate, significant increase over controls.

## 1,2-Dimethyl-3,5-diphenylpyrazolium salt with 2,6-dibromo-α,α,α-trifluoro-N--aci-nitro-o-toluidine
[1]; rate 0.125 kg/ha
  % Reduction in Plant Height over untreated controls: > 10%
[1]; rate 0.25 kg/ha
  % Reduction in Plant Height over untreated controls: > 15%
[1]; rate 0.5 kg/ha
  % Reduction in Plant Height over untreated controls: > 20%

## Cn1c(-c2ccccc2)cc(-c2ccccc2)[n+]1C.O=[N+]([O-])[N-]c1c(Cl)cc(Cl)cc1Cl [1,2-Dimethyl-3,5-diphenylpyrazolium salt with 2,4,6-trichloro-N--aci-nitroaniline]
[1]; rate 0.125 kg/ha
  % Reduction in Plant Height over untreated controls: > 10%
[1]; rate 0.25 kg/ha
  % Reduction in Plant Height over untreated controls: > 15%
[1]; rate 0.5 kg/ha
  % Reduction in Plant Height over untreated controls: > 25%

## O=[N+]([O-])Nc1c(Br)cc(Br)cc1Br [1-Hexadecylpyridinium salt with 2,4,6-tribromo-N-- aci-nitro] [1-Hexadecylpyridinium salt with 2,4,6-tribromo-N-- aci-nitroaniline]
[1]; rate 0.125 kg/ha
  % Reduction in Plant Height over untreated controls: > 35%
[1]; rate 0.25 kg/ha
  % Reduction in Plant Height over untreated controls: > 35%
[1]; rate 0.5 kg/ha
  % Reduction in Plant Height over untreated controls: > 50%

## O=[N+]([O-])Nc1c(Br)cc(Br)cc1Br [Dibenzylamine(1:1)with 2,4,6-tribromo-N--nitroaniline]
[1]; rate 0.125 kg/ha
  % Reduction in Plant Height over untreated controls: > 25%
[1]; rate 0.25 kg/ha
  % Reduction in Plant Height over untreated controls: > 35%
[1]; rate 0.5 kg/ha
  % Reduction in Plant Height over untreated controls: > 50%

## O=[N+]([O-])Nc1c(Br)cc(Br)cc1Br [Dodecylamine with 2,4,6-tribromo-N--nitroaniline]
[1]; rate 0.125 kg/ha
  % Reduction in Plant Height over untreated controls: > 15%
[1]; rate 0.25 kg/ha
  % Reduction in Plant Height over untreated controls: > 25%
[1]; rate 0.5 kg/ha
  % Reduction in Plant Height over untreated controls: > 35%

## O=[N+]([O-])Nc1c(Br)cccc1Br [Tallowamine compound with 2,6-dibromo-N--nitroaniline]
[2]; rate 0.25 kg/ha
  Stem stiffness: 4
  Tiller formation: 5 (No increase over controls)
  Weight Dry: 6.8 g
  Weight Fresh: 62.3 g
  Height: 54.7 cm
  Phytotoxicity: 5 (No increase over controls)
[2]; rate 0.5 kg/ha
  Stem stiffness: 4
  Tiller formation: 4
  Weight Dry: 7.5 g
  Weight Fresh: 60.1 g
  Height: 48.5 cm
  Phytotoxicity: 5 (No increase over controls)
[2]; rate 1.0 kg/ha
  Stem stiffness: 4
  Tiller formation: 4
  Weight Fresh: 55.9 g
  Height: 48.7 cm
  Phytotoxicity: 5 (No increase over controls)

## CCc1cccc(C(C)C)c1N[N+](=O)[O-] [Tallowamine compound with 2-ethyl-6-isopropyl-N--nitroanilin] [Tallowamine compound with 2-ethyl-6-isopropyl-N--nitroaniline]
[2]; rate 0.25 kg/ha
  Stem stiffness: 4
  Tiller formation: 4
  Weight Fresh: 49.2 g
  Height: 45.0 cm
  Phytotoxicity: 5 (No increase over controls)
[2]; rate 0.5 kg/ha
  Stem stiffness: 4
  Tiller formation: 4
  Weight Fresh: 47.1 g
  Height: 41.7 cm
  Phytotoxicity: 5 (No increase over controls)
[2]; rate 1.0 kg/ha
  Stem stiffness: 4
  Tiller formation: 4
  Weight Fresh: 52.4 g
  Height: 45.7 cm
  Phytotoxicity: 5 (No increase over controls)

## Tributyl(2,4-dichlorobenzyl)phosphonium salt with aniline
[1]; rate 0.125 kg/ha
  % Reduction in Plant Height over untreated controls: > 8%
[1]; rate 0.25 kg/ha
  % Reduction in Plant Height over untreated controls: > 25%
[1]; rate 0.5 kg/ha
  % Reduction in Plant Height over untreated controls: > 50%
